Reference: patent US8916570B2 (The United States of America, as represented by the …, priority 2008, dated 2014)

Key:
hA1AR = target: T1, hA1AR (Homo sapiens, UniProt P30542); assay: Binding at hA1AR, CHO membranes (Example 7); details: read-out: % inhibition hA1
T1 construct: expressed in transfected cells; host or cells: CHO
T1 sequence (P30542 1-326): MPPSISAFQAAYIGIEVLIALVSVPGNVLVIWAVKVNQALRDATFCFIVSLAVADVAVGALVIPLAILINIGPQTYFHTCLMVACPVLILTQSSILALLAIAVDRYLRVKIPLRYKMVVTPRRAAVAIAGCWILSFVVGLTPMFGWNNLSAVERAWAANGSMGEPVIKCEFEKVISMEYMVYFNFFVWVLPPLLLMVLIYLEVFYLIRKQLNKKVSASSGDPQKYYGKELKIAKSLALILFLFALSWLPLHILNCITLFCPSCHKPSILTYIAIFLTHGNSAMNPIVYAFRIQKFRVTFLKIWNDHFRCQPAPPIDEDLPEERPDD
Protocol: (§1) CHO cells stably expressing the recombinant hA1, hA3, and rA3Rs, and HEK-293 cells stably expressing the hA2AAR were cultured in Dulbecco's modified Eagle medium (DMEM) and F12 (1:1) supplemented with 10% fetal bovine serum, 100 units/mL penicillin, 100 μg/mL streptomycin, and 2 μmol/mL glutamine. In addition, 800 μg/mL geneticin was added to the A2A media, while 500 μg/mL hygromycin was added to the A1 and A3 media. After harvesting, cells were homogenized and suspended in PBS. Cells were then centrifuged at 240 g for 5 min, and the pellet was resuspended in 50 mM Tris-HCl buffer (pH 7.5) containing 10 mM MgCl2. The suspension was homogenized and was then ultra-centrifuged at 14,330 g for 30 min at 4° C. […] The protein concentration was measured using the BCA Protein Assay Kit from Pierce Biotechnology, Inc. (Rockford, Ill.).
(§2) Into each tube in the binding assay was added 50 μL of increasing concentrations of the test ligand in Tris-HCl buffer (50 mM, pH 7.5) containing 10 mM MgCl2, 50 μL of the appropriate agonist radioligand, and finally 100 μL of membrane suspension. […] For the A2AAR (20 μg/tube) the radioligand used was [^3H]53 (10 nM). […] Nonspecific binding was determined using a final concentration of 10 μM 51 diluted with the buffer. The mixtures were incubated at 25° C. for 60 min in a shaking water bath. Binding reactions were terminated by filtration through Brandel GF/B filters under a reduced pressure using a M-24 cell harvester (Brandel, Gaithersburg, Md.). Filters were washed three times with 3 mL of 50 mM ice-cold Tris-HCl buffer (pH 7.5). […] Filters for A3AR binding were counted using a Packard COBRA™ II γ-counter. The Ki values were determined using GraphPad Prism for all assays.

mA1AR = target: T2, mA1AR (Mus musculus, UniProt Q60612); assay: Competition binding at mA1AR, HEK293 membranes (Example 8); details: percent in parentheses, concentration not given
T2 construct: expressed in transfected cells
T2 sequence (Q60612 1-326): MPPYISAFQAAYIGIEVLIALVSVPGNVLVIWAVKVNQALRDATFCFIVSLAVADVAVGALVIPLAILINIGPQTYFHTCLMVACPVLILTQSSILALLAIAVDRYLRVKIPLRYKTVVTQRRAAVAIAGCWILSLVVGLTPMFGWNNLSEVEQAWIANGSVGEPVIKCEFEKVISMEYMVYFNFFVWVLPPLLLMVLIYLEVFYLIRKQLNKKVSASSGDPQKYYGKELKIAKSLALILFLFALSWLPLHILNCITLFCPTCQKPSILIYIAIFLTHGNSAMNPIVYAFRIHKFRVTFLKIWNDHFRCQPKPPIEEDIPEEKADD

hA2AAR = target: T3, hA2AAR (Homo sapiens, UniProt P29274); assay: Binding at hA2AAR, HEK-293 membranes (Example 7); details: read-out: % inhibition hA2A
T3 construct: expressed in transfected cells
T3 sequence (P29274 whole entry): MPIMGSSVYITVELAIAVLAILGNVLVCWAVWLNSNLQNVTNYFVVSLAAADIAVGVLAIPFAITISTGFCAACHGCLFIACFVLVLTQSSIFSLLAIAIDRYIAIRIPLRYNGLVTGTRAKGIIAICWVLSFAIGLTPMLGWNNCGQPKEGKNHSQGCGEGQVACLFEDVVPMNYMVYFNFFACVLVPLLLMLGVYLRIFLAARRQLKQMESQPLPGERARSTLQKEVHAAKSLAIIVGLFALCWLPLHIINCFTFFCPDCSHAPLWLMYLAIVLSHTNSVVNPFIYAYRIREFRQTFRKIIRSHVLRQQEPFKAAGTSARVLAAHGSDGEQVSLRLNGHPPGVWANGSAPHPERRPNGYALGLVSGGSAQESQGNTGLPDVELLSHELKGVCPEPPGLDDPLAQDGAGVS
Protocol: After harvesting, cells were homogenized and suspended in PBS.
Nonspecific binding was determined using a final concentration of 10 μM 51 diluted with the buffer.

hA3AR = target: T4, hA3AR (Homo sapiens, UniProt P0DMS8); assay: Binding at hA3AR, CHO membranes (Example 7); details: read-out: Affinity (Ki, nM) hA3
T4 construct: expressed in transfected cells; host or cells: CHO
T4 sequence (P0DMS8 1-318): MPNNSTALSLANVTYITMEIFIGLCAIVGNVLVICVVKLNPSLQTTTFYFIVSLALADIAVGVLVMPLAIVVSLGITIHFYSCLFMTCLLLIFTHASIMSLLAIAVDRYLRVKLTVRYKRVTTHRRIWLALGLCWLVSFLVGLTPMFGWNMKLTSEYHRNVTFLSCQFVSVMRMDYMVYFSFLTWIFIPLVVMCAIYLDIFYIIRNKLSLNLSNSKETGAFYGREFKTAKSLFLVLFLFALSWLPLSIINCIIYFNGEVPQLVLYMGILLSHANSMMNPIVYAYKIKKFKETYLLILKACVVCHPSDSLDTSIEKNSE
Protocol: as §1, §2

mA3AR = target: T5, mA3AR (Mus musculus, UniProt Q61618); assay: Competition binding at mA3AR, HEK293 membranes (Example 8); details: read-out: Affinity (Ki, nM) mA3
T5 construct: expressed in transfected cells
T5 sequence (Q61618 1-319): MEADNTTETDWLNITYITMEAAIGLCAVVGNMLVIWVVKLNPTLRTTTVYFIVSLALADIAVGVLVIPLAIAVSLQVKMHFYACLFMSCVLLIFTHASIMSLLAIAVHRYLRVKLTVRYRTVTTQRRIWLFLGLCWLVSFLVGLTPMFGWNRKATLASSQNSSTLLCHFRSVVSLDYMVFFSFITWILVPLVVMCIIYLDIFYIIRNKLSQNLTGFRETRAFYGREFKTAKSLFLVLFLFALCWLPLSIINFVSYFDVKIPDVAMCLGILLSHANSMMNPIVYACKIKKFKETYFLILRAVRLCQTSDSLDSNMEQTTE

[1] = target: T6, human A1 adenosine receptor (Homo sapiens, UniProt P30542); assay: Radioligand binding, human A1 AR, CHO membranes (Table 1); details: for A1 % inhib.: species H (human), percent in parentheses, concentration not marked
T6 sequence (P30542 1-326): T1 sequence (P30542 1-326)

[2] = target: T7, human A3 adenosine receptor (Homo sapiens, UniProt P0DMS8); assay: [125I]I-AB-MECA binding, human A3 AR, CHO membranes (Table 1); details: for Ki: A3 Ki, species H (human)
T7 sequence (P0DMS8 1-318): T4 sequence (P0DMS8 1-318)

human A3AR = target: T8, human A3AR (Homo sapiens, UniProt P0DMS8); assay: Inhibition of forskolin-stimulated cyclic AMP production in AR transfected CHO cells (Table 1); format: cell-based; details: CHO; read-out: % Efficacy at the human A3 AR
T8 construct: expressed in transfected cells; host or cells: CHO
T8 sequence (P0DMS8 1-318): T4 sequence (P0DMS8 1-318)

[3] = target: human A2A adenosine receptor (Homo sapiens, UniProt P29274); assay: Radioligand binding, human A2A AR (Table 1)
Sequence of human A2A adenosine receptor (P29274 whole entry): as the sequence (P29274 whole entry) above

Compound: CNC(=O)[C@@]12C[C@@H]1[C@@H](n1cnc3c(NCc4cccc(Cl)c4)nc(C#Cc4ccccc4Cl)nc31)[C@H](O)[C@@H]2O [Compound 329, (1S,2R,3S,4R,5S)-4-(6-(3-Chlorobenzylamino)-2-((2-chlorophenyl)ethynyl)-9H-purin-9-yl)-2,3-dihydroxy-N-methylbicyclo[3.1.0]hexane-1-carboxamide]
- inhibition at 10 µM (hA1AR): 20%
- % inhibition mA1 (mA1AR): (36%)
- inhibition at 10 µM (hA2AAR): 52%
- Ki (hA3AR): 1.92 ± 0.57 nM
- Ki (mA3AR): 7.5 nM

Compound: CNC(=O)C12CC1C(n1cnc3c(NCc4cccc(Cl)c4)nc(C#CCCC(=O)NCCNC(=O)CCCCCNC(=O)CCCCC4SCC5NC(=O)NC54)nc31)C(O)C2O (stereo not drawn) [Compound 43, (1′S,2′R,3′S,4′S,5′S)-4′-[6-(3-Chlorobenzylamino)-2-(N-biotinyl {5-aminopentanyl}(β-aminoethylaminocarbonyl)-1-butynyl)-9-yl]-2′,3′-dihydroxybicyclo[3.1.0]hexane-1′-carboxylic acid N-methylamide]
- A1 % inhib. [1]: (8 ± 4%)
- Ki [2]: 57.7 ± 16.2 nM
- Emax at 10 µM (human A3AR): 106 ± 17.7%

Compound: CNC(=O)C12CC1C(n1cnc3c(NCc4cccc(Cl)c4)nc(C#CCCC(=O)OC)nc31)C(O)C2O (stereo not shown) [Compound 35]
- A1 % inhib. [1]: (19 ± 3%)
- Ki [2]: 5.5 ± 0.3 nM
- Emax at 10 µM (human A3AR): 74.4 ± 5.1%

Compound: CNC(=O)[C@@]12C[C@@H]1[C@@H](n1cnc3c(NCc4cccc(Cl)c4)nc(C#Cc4ccc(-c5ccccc5)cc4)nc31)[C@H](O)[C@@H]2O [Compound 335, (1S,2R,3S,4R,5S)-4-(2-(Biphenyl-4-ylethynyl)-6-(3-chlorobenzylamino)-9H-purin-9-yl)-2,3-dihydroxy-N-methylbicyclo[3.1.0]hexane-1-carboxamide]
- % inhibition mA1 (mA1AR): (28%)
- inhibition at 10 µM (hA2AAR): 0%
- Ki (hA3AR): 3.06 ± 1.35 nM
- Ki (mA3AR): 22 nM

Compound: CNC(=O)[C@@]12C[C@@H]1[C@@H](n1cnc3c(NCc4cccc(Cl)c4)nc(C#Cc4ccc(F)cc4)nc31)[C@H](O)[C@@H]2O [Compound 328, (1S,2R,3S,4R,5S)-4-(6-(3-Chlorobenzylamino)-2-((4-fluorophenyl)ethynyl)-9H-purin-9-yl)-2,3-dihydroxy-N-methylbicyclo[3.1.0]hexane-1-carboxamide]
- inhibition at 10 µM (hA1AR): 19%
- % inhibition mA1 (mA1AR): (39%)
- inhibition at 10 µM (hA2AAR): 42%
- Ki (mA3AR): 7.5 nM

Compound: CNC(=O)C12CC1C(n1cnc3c(NCc4cccc(Cl)c4)nc(C#CCCCCC(=O)OC)nc31)C(O)C2O (stereo not shown) [Compound 36]
- Ki [3]: 3.54 ± 1.37 µM
- A1 % inhib. [1]: (21 ± 8%)
- Ki [2]: 11.1 ± 2.3 nM
- Emax at 10 µM (human A3AR): 90 ± 6.2%

Compound: CNC(=O)C12CC1C(n1cnc3c(NC4CCCC4)nc(Cl)nc31)C(O)C2O (stereo not shown) [Compound 32]
- Ki [3]: 3.25 ± 0.3 µM
- Ki [1]: 18.3 ± 6.3 nM
- Emax at 10 µM (human A3AR): 101%

Compound: CNC(=O)C12CC1C(n1cnc3c(NCc4cccc(Cl)c4)nc(C#CCCC(=O)NCCCCN)nc31)C(O)C2O (stereo not drawn) [Compound 40, (1′S, 2′R, 3′S, 4′S, 5′S)-4′-[6-(3-Chlorobenzylamino)-2-(4-(β-aminobutylaminocarbonyl)-1-butynyl)-9-yl]-2′,3′-dihydroxybicyclo[3.1.0]hexane-1′-carboxylic acid N-methylamide]
- Ki [3]: 0.766 ± 0.109 µM
- Ki [2]: 2.1 ± 0.4 nM
- Selectivity A1/A3 ([2]; human): up to 1900
- Emax at 10 µM (human A3AR): 102 ± 13%

Compound: CNC(=O)[C@@]12C[C@@H]1[C@@H](n1cnc3c(NCc4cccc(Cl)c4)nc(C#Cc4ccccc4)nc31)[C@H](O)[C@@H]2O [Compound 327, (1S,2R,3S,4R,5S)-4-(6-(3-Chlorobenzylamino)-2-(phenylethynyl)-9H-purin-9-yl)-2,3-dihydroxy-N-methylbicyclo[3.1.0]hexane-1-carboxamide]
- inhibition at 10 µM (hA1AR): 18%
- % inhibition mA1 (mA1AR): (41%)
- inhibition at 10 µM (hA2AAR): 27%
- Ki (mA3AR): 16 nM
